We go through four compounds from patent publication US20230137927A1, “INTERFERON TAU AS ANTIVIRAL THERAPY” (priority 2020, published 2023).

One data set concerns hCoV-229E. The data set is described as follows: hCoV-229E CPE assay. The settings on record: Human coronavirus 229E. It counts as cell-based.
The subject of data set [1] is SARS CoV-2 (USA_WA1/2020). The data set is described as follows: SARS-CoV-2 CPE assay in Vero E6 cells. It counts as cell-based. The settings on record: Severe acute respiratory syndrome coronavirus 2, Vero C1008, reference compounds in the same assay.
The subject of the next data set is hCoV-OC43. The data set is described as follows: HCoV OC43 CPE assay in Huh7 cells. It counts as cell-based.
Data set [2] in a line: Cytotoxicity in parallel with OC43 CPE assay, without virus. The settings on record: human.
The subject of another data set is Huh7 cells. The description is as above. Particulars: Huh7 cells; no virus; reference compounds.
The test system of a further data set is YFV 17D. In words: microbe, parasite or virus in culture. It counts as cell-based. The settings on record: Yellow fever virus.
Data set [3] has as its system DENV type 2 Rluc-NGC strain. In words: microbe, parasite or virus in culture. It counts as cell-based. Particulars: Dengue virus, Vero.
[4] abbreviates: Betacoronavirus 1, OC43, Huh-7, read-out: Average Inhibition (%).

pEC50, pIC50: −log10 of the molar value. Where two headings read alike, the source gives them in different places.

Regarding `CCN(CC)CCCC(C)Nc1ccnc2cc(Cl)ccc12` (stereo not drawn) [Chloroquine], the pIC50 in the data set on hCoV-229E (MRCS cells, data not shown, read-out: IC50) is 5.66.
Regarding `CCN(CCO)CCCC(C)Nc1ccnc2cc(Cl)ccc12` (stereo not drawn) [Hydroxychloroquine], the pIC50 in data set [1] is 5.72.
In the data set with hCoV-229E (72 h), `CCC(CC)COC(=O)[C@H](C)N[P@](=O)(OC[C@H]1O[C@@](C#N)(c2ccc3c(N)ncnn23)[C@H](O)[C@@H]1O)Oc1ccccc1` [Remdesivir] had a pIC50 of 7.64. Further, the negative logarithm of the EC50 (pEC50) with hCoV-OC43 (Betacoronavirus 1, OC43, Huh-7) is 7.38. Besides, in the data set on hCoV-OC43 (setting [4]), the inhibition at 0.000457 µM is -4.12%, the inhibition at 0.001372 µM was -0.1%, the inhibition at 0.004115 µM was determined as 1.54% and the inhibition at 0.01235 µM was 8.25%. Also, in the data set with hCoV-OC43 (setting [4]), the inhibition at 0.03704 µM came out at 30.4%, the inhibition at 0.11111 µM came to 83.4%, the inhibition at 0.33333 µM came to 79.5% and the inhibition at 1 µM turned out to be 80.3%. In data set [1], the pIC50 was 5.41. In addition, in data set [2], the viability at 7 days, 0.046 µM came to 100%; the viability at 7 days, 0.137 µM stood at 102%; the viability at 7 days, 0.412 µM came out at 104%; the viability at 7 days, 1.235 µM turned out to be 102%. Moreover, in data set [2], the viability at 7 days, 3.704 µM turned out to be 86.9%; the viability at 7 days, 11.11 µM worked out at 56.8%; the viability at 7 days, 33.33 µM was found to be 36.9%; the viability at 7 days, 100 µM was found to be 21.8%. The CC50 in the data set with Huh7 cells stood at 17.2 µM.
Turning to `NC(=O)c1ncn([C@@H]2O[C@H](CO)[C@@H](O)[C@H]2O)n1` [Ribavirin], in the data set with YFV 17D (read-out: EC50 for YFV, FIG. 4B as described in Examples 3 & 4), the pEC50 was 3.65. Besides, in the data set on YFV 17D (read-out: EC50 for YFV, FIG. 4B legend), the negative logarithm of the EC50 (pEC50) was 3.87. In the data set “in vitro”, this compound gave a CC50 above 699 µM. Further, in data set [3], the pEC50 was 4.49, the inhibition at 0.015 µM worked out at 14.9%, the inhibition at 0.046 µM is 14.9% and the inhibition at 0.137 µM was 10.8%. In data set [3], the inhibition at 0.412 µM was determined as 13.5%, the inhibition at 1.235 µM was 31.1%, the inhibition at 3.704 µM was 20.3% and the inhibition at 11.111 µM amounted to 24.3%. Besides, in data set [3], the inhibition at 33.333 µM came to 60.8%, the inhibition at 100 µM is 98.7% and the inhibition at 300 µM was determined as 100%.

As usually defined, the pIC50 is the IC50 on a negative log10 scale, so that one unit is a factor of ten. The term pEC50 denotes −log10 of the EC50, conventionally taken in molar units. What is called inhibition is the change of the read-out against control, counted positive when it falls. As a reminder, the viability is a read-out of living cells in per cent, often relative to untreated cells.
